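96-well plates; 48 h exposure; 5 concentrations. Endpoints by linear interpolation between flanking doses. Not reached: highest tested concentration assigned. At the GI50, growth is halved. TGI denotes the concentration required for complete inhibition of growth.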
Tests used:
Test in all cases: NCI-60 cell line screen, 48 h
[1] = system: 786-0 renal
[2] = system: A549 NSCLC
[3] = system: BT-549 breast
[4] = system: CAKI-1 renal
[5] = system: COLO 205 colon
[6] = system: DU-145 prostate
[7] = system: EKVX NSCLC
[8] = system: HCT-116 colon
[9] = system: HCT-15 colon
[10] = system: HL-60(TB) leukemia
[11] = system: HOP-62 NSCLC
[12] = system: HOP-92 NSCLC
[13] = system: HS 578T breast
[14] = system: IGROV1 ovarian
[15] = system: K-562 leukemia
[16] = system: KM12 colon
[17] = system: LOX IMVI melanoma
[18] = system: M14 melanoma
[19] = system: MCF7 breast
[20] = system: MDA-MB-231 breast
[21] = system: MDA-MB-435
[22] = system: NCI-H23 lung
[23] = system: NCI-H460 lung
[24] = system: OVCAR-3 ovarian
[25] = system: OVCAR-4 ovarian
[26] = system: OVCAR-5 ovarian
[27] = system: OVCAR-8 ovarian
[28] = system: PC-3 prostate
[29] = system: RPMI-8226 leukemia
[30] = system: SF-268 CNS
[31] = system: SF-295 CNS
[32] = system: SF-539 CNS
[33] = system: SK-MEL-2 melanoma
[34] = system: SK-MEL-28 melanoma
[35] = system: SK-MEL-5 melanoma
[36] = system: SK-OV-3 ovarian
[37] = system: SNB-19 CNS
[38] = system: SNB-75 CNS
[39] = system: SR leukemia
[40] = system: SW-620 colon
[41] = system: T-47D breast
[42] = system: TK-10 renal
[43] = system: U251 CNS
[44] = system: UACC-257 melanoma
[45] = system: UACC-62 melanoma
[46] = system: UO-31 renal
[47] = system: A498 renal
[48] = system: ACHN renal
[49] = system: CCRF-CEM leukemia
[50] = system: HCC-2998 colon
[51] = system: HT29 colon
[52] = system: MALME-3M melanoma
[53] = system: MOLT-4 leukemia
[54] = system: NCI-H522 lung
[55] = system: NCI/ADR-RES ovarian
[56] = system: RXF 393 renal
[57] = system: SN12C renal

For `COc1cccc(/C=C/C(=O)c2ccc3cc(OC)ccc3c2)c1`, the GI50 [1] was 10.9 µM, the TGI [1] was 19.2 µM and the GI50 [2] was 15.5 µM. The TGI [2] was 49.4 µM, the GI50 [3] was 8.07 µM and the TGI [3] was 17.7 µM. The GI50 [4] was 16.4 µM, the TGI [4] was greater than 50 µM and the GI50 [5] was 8.13 µM. The TGI [5] was 17 µM, the GI50 [6] was 8.54 µM and the TGI [6] was 17.5 µM. It also gave a GI50 [7] of 13 µM, a TGI [7] of 40.8 µM and a GI50 [8] of 9.21 µM. The TGI [8] was 16.2 µM, the GI50 [9] was 9.73 µM and the TGI [9] was 30.8 µM. It also gave a GI50 [10] of 17.5 µM, a TGI [10] greater than 50 µM and a GI50 [11] of 17.3 µM. The TGI [11] was greater than 50 µM, the GI50 [12] was 11.1 µM and the TGI [12] was 41.3 µM. The GI50 [13] was 14.3 µM, the TGI [13] was 48.3 µM and the GI50 [14] was 4.05 µM. The TGI [14] was 21.7 µM, the GI50 [15] was 9.13 µM and the TGI [15] was greater than 50 µM. It also gave a GI50 [16] of 9.91 µM, a TGI [16] of 22.9 µM and a GI50 [17] of 2.92 µM. It also gave a TGI [17] of 14.5 µM, a GI50 [18] of 13.6 µM and a TGI [18] of 41.3 µM. It also gave a GI50 [19] of 15.4 µM, a TGI [19] greater than 50 µM and a GI50 [20] of 8.95 µM. For the same compound, the TGI [20] was 22.9 µM, the GI50 [21] was 7.38 µM and the TGI [21] was 19 µM. For the same compound, the GI50 [22] was 11.6 µM, the TGI [22] was 21 µM and the GI50 [23] was 25.2 µM. The TGI [23] was greater than 50 µM, the GI50 [24] was 9.67 µM and the TGI [24] was 22.8 µM. The GI50 [25] was 24.7 µM, the TGI [25] was greater than 50 µM and the GI50 [26] was 11.1 µM. It also gave a TGI [26] of 25.5 µM, a GI50 [27] of 10.6 µM and a TGI [27] of 33.3 µM. For the same compound, the GI50 [28] was 18.3 µM, the TGI [28] was greater than 50 µM and the GI50 [29] was 10.8 µM. It also gave a TGI [29] of 34.8 µM, a GI50 [30] of 15.5 µM and a TGI [30] greater than 50 µM. The GI50 [31] was 9.58 µM, the TGI [31] was 22.1 µM and the GI50 [32] was 7.95 µM. For the same compound, the TGI [32] was 16.8 µM, the GI50 [33] was 48.3 µM and the TGI [33] was greater than 50 µM. It also gave a GI50 [34] of 12.6 µM, a TGI [34] of 48.1 µM and a GI50 [35] of 9.21 µM. The TGI [35] was 18.2 µM, the GI50 [36] was 10.7 µM and the TGI [36] was 22.7 µM. The GI50 [37] was 14 µM, the TGI [37] was 47.3 µM and the GI50 [38] was 0.066 µM. For the same compound, the TGI [38] was 14.6 µM, the GI50 [39] was 10.1 µM and the TGI [39] was greater than 50 µM. It also gave a GI50 [40] of 7.03 µM, a TGI [40] of 20.5 µM and a GI50 [41] of 10.7 µM. The TGI [41] was 25.7 µM, the GI50 [42] was 15.6 µM and the TGI [42] was 46.4 µM. For the same compound, the GI50 [43] was 14 µM, the TGI [43] was 42 µM and the GI50 [44] was greater than 50 µM. For the same compound, the TGI [44] was greater than 50 µM, the GI50 [45] was 8.35 µM and the TGI [45] was 21.9 µM. It also gave a GI50 [46] of 9.25 µM and a TGI [46] of 19 µM.
`C[C@@]1([C@H](OC(=O)c2ccccc2)C(N)=O)CO1` gave a GI50 [1] of 22.6 µM, a TGI [1] of 59.4 µM and a GI50 [47] of 33.8 µM. The TGI [47] was 88.3 µM, the GI50 [2] was 24 µM and the TGI [2] was 61.4 µM. It also gave a GI50 [48] of 10.5 µM, a TGI [48] of 34.3 µM and a GI50 [3] of 20.8 µM. The TGI [3] was 48.5 µM, the GI50 [4] was 10.7 µM and the TGI [4] was 31.5 µM. The GI50 [49] was 19.7 µM, the TGI [49] was greater than 100 µM and the GI50 [5] was 22.5 µM. The TGI [5] was 43 µM, the GI50 [6] was 27.2 µM and the TGI [6] was greater than 100 µM. It also gave a GI50 [7] of 24.2 µM, a TGI [7] of 62.4 µM and a GI50 [50] of 20.5 µM. For the same compound, the TGI [50] was 40.3 µM, the GI50 [8] was 17.5 µM and the TGI [8] was 58.6 µM. It also gave a GI50 [9] of 20.8 µM, a TGI [9] of 54.9 µM and a GI50 [11] of 21.8 µM. The TGI [11] was 64.9 µM, the GI50 [12] was 14.8 µM and the TGI [12] was 42.1 µM. For the same compound, the GI50 [13] was 34.4 µM, the TGI [13] was 92.7 µM and the GI50 [51] was 27 µM. The TGI [51] was greater than 100 µM, the GI50 [14] was 19.6 µM and the TGI [14] was greater than 100 µM. For the same compound, the GI50 [15] was 5.67 µM, the TGI [15] was greater than 100 µM and the GI50 [16] was 33.4 µM. For the same compound, the TGI [16] was greater than 100 µM, the GI50 [17] was 4.21 µM and the TGI [17] was 24.5 µM. The GI50 [18] was 22.1 µM, the TGI [18] was 53.9 µM and the GI50 [52] was 28.3 µM. The TGI [52] was 58 µM, the GI50 [19] was 32 µM and the TGI [19] was greater than 100 µM. For the same compound, the GI50 [20] was 14.9 µM, the TGI [20] was 41.8 µM and the GI50 [21] was 17.8 µM. The TGI [21] was 36 µM, the GI50 [53] was 35.7 µM and the TGI [53] was greater than 100 µM. It also gave a GI50 [22] of 20.2 µM, a TGI [22] of 61.5 µM and a GI50 [23] of 20.6 µM. For the same compound, the TGI [23] was 53 µM, the GI50 [54] was 22.2 µM and the TGI [54] was 76.5 µM. It also gave a GI50 [55] of 16.4 µM, a TGI [55] of 44.3 µM and a GI50 [24] of 16.4 µM. The TGI [24] was 35.4 µM, the GI50 [25] was 37.6 µM and the TGI [25] was greater than 100 µM. The GI50 [26] was 34.1 µM, the TGI [26] was 85.9 µM and the GI50 [27] was 20.1 µM. The TGI [27] was 46.1 µM, the GI50 [28] was 16.6 µM and the TGI [28] was 52.1 µM. The GI50 [29] was 26.2 µM, the TGI [29] was greater than 100 µM and the GI50 [56] was 18 µM. For the same compound, the TGI [56] was 43.5 µM, the GI50 [30] was 19.4 µM and the TGI [30] was 50 µM. It also gave a GI50 [31] of 16.9 µM, a TGI [31] of 41.5 µM and a GI50 [32] of 21.6 µM. The TGI [32] was 55.7 µM, the GI50 [33] was 22.1 µM and the TGI [33] was greater than 100 µM. The GI50 [34] was 20.6 µM, the TGI [34] was 53.2 µM and the GI50 [35] was 15.1 µM. The TGI [35] was 31.3 µM, the GI50 [36] was 28.3 µM and the TGI [36] was 66 µM. The GI50 [57] was 13.7 µM, the TGI [57] was 33.9 µM and the GI50 [37] was 30.5 µM. For the same compound, the TGI [37] was 93.6 µM, the GI50 [38] was 22.8 µM and the TGI [38] was 50.6 µM. The GI50 [40] was 22.6 µM, the TGI [40] was 95.2 µM and the GI50 [41] was 30.4 µM. For the same compound, the TGI [41] was 83.3 µM, the GI50 [42] was 19.8 µM and the TGI [42] was 73.7 µM. For the same compound, the GI50 [43] was 17.1 µM, the TGI [43] was 37.5 µM and the GI50 [44] was 43.7 µM. It also gave a TGI [44] greater than 100 µM, a GI50 [45] of 14.9 µM and a TGI [45] of 29.4 µM. It also gave a GI50 [46] of 20.2 µM and a TGI [46] of 51.8 µM.
